Results: patent US20210102200A1, “SMALL MOLECULE TARGETED RECRUITMENT OF A NUCLEASE TO RNA” (The Scripps Research Institute, priority 2018, published 2021)

Experiments:
pre-miR-210 mimic = assay: Microscale thermophoresis binding, miR-210 Hairpin RNA; settings: MST
Experimental: (§1) MST fluorescent measurements were performed on a Monolith NT.115 system (NanoTemper Technologies) using the fluorescence of a 5′-Cy5 labeled miR-210 Hairpin RNA (5′—Cy5 […]) (SEQ ID NO: 11), a 5′-Cy5 miR-210 Mutant RNA (5′—Cy5 […]) (SEQ ID NO: 12), or a 5′ Cy5 DNA Hairpin (5′—Cy5 […]) (SEQ ID NO: 13) which were purchased from IDT with RNase-free HPLC purification and used without further purification. The RNA (5 nM) was prepared in 1×MST Buffer (8 mM Na2HPO4, 190 mM NaCl, 1 mM EDTA, and 0.05% (v/v) Tween-20) and folded by heating at 60° C. for 5 min, and slowly cooling to room temperature. Compounds (TGP-210 or TGP-210-RL) were diluted in 1×MST Buffer and then were added to a final concentration of 20 μM, followed by 1:2 dilutions in 1×MST Buffer containing 5 nM RNA. Alternatively, RNase L in 1×MST Buffer was added to a final concentration of 50 nM in addition to compound and RNA. […] Fluorescence measurements (Ex: 605-645 nm, Em: 680-685 nm) were performed at 20% LED and 80% MST power, with a Laser-On time of 30 s and Laser-Off time of 5 s. The data were analyzed by thermophoresis analysis and fitted by the quadratic binding equation in MST analysis software (NanoTemper Technologies). Dissociation constants were then determined by curve fitting using a single-site model.

MDA-MB-231 cells = assay: Caspase 3/7 activity in MDA-MB-231 cells; assay type: cell-based
Experimental: Approximately 5,000 MDA-MB-231 cells were plated into white, cell-culture treated, 96-well plates (Corning). At ˜60% confluency, cells were treated with dilutions of LNA-210, Scr-LNA, TGP-210, or TGP-210-RL and then placed under hypoxic or normoxic conditions. After 48 h, caspase 3/7 activity was measured using a Caspase-Glo 3/7 kit (Promega) according to the manufacturer's protocol. Alternatively, MDA-MB-231 cells were transfected with a plasmid overexpressing pre-miR-210 (Genecopoeia; HmiR0167-MR04) using Lipofectamine 2000 (Invitrogen). After 5 h of transfection, cells were plated into white, cell-culture treated 96-well plates (Corning) and then treated as described above. Fold change in Caspase activity was calculated by normalizing treated samples to the untreated samples after subtracting background sample values.

RNase L = target: T1, RNase L (Homo sapiens, UniProt Q05823); assay: In vitro RNase L oligomerization, TGP-210-RL study; assay type: biochemical; settings: in vitro cross-linking
T1 construct: GST; made in house
T1 sequence (Q05823 1-741): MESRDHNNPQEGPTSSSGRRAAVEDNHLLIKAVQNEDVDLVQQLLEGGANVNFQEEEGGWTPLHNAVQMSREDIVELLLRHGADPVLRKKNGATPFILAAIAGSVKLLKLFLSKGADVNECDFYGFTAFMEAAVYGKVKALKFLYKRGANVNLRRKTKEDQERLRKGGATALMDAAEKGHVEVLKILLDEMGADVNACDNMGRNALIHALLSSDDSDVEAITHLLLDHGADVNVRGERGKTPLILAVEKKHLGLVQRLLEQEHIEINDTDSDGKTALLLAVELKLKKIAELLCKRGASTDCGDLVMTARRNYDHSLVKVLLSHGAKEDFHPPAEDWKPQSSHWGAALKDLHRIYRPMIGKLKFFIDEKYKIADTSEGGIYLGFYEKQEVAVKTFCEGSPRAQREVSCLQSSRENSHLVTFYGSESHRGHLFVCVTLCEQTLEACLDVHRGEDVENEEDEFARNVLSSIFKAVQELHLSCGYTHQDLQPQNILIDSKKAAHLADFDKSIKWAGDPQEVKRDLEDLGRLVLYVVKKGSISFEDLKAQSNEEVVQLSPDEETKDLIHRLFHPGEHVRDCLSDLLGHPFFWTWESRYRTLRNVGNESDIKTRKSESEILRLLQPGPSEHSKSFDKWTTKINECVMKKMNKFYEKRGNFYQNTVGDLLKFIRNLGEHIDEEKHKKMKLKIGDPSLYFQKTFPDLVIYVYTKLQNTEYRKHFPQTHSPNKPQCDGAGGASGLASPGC
Experimental: An aliquot of RNase L (3 μM) in 1×RNase L Buffer was supplemented with 10 mM MgCl2, fresh 7 mM β-mercaptoethanol, and 50 μM of ATP. Dilutions of 2′-5′ A4, TGP-210, or TGP-210-RL were prepared in 1×RNase L Buffer supplemented with 10 mM MgCl2, fresh 7 mM β-mercaptoethanol, and 50 μM of ATP and added to the solution of RNase L in a total volume of 17.4 μL. The RNase L/compound solutions were incubated at room temperature for 5 min and then 1 μL of 44 mM dimethyl suberimidate (Thomas Scientific) in 0.4 M triethanolamine hydrochloride, pH 8.5, was added. After incubating at room temperature for 2 h, 3.6 μL of 6×Laemmli buffer (375 mM Tris-HCl, pH 6.8, 0.03% bromophenol blue, 0.6% β-mercaptoethanol, 12% SDS, 60% glycerol) was added. After heat denaturing the samples at 95° C. for 5 min, the samples were diluted 1:90 in 1×Laemmli buffer and then resolved by SDS-PAGE. After transferring to a PVDF membrane, the membrane was blocked in 1×TBST [1×TBS with 0.1% Tween-20 (v/v)] containing 5% nonfat milk for 1 h. […] After washing the membrane five times for 5 min each with 1×TBST, protein levels were quantified by chemiluminescence with SuperSignal West Pico Chemiluminescent Substrate (Pierce Biotechnology) per the manufacturer's protocol. RNase L bands associated with monomeric or oligomeric signals were quantified using ImageJ software (National Institutes of Health).

DNA = assay: Microscale thermophoresis binding, DNA Hairpin
Experimental: as §1

Kd (pre-miR-210 mimic): 160 nM
Oligomerization of RNase L (RNase L): not
Selectivity window between DNA and the Dicer site in pre-miR-210 (DNA): 5 fold
Kd (DNA; MST): 620 nM
Substance: Targapremir-210 [TGP-210]
Apoptotic stimulation (caspase activity) (MDA-MB-231 cells; hypoxic MDA-MB-231 cells, 48 h, TGP-210-RL at 500 nM): similar
Apoptosis upon miR-210 overexpression (MDA-MB-231 cells; miR-210 overexpressed background): no longer stimulated apoptosis
